Assay results from publication PMC11404609, “Gut microbiota-mediated C-sulfonate metabolism impairs the bioavailability and anti-cholestatic efficacy of andrographolide” (Gut Microbes, 2024).

Legend:
[1] = Tissue distribution of AP and APM in rats; format: in vivo; settings: ABX-treated rats vs Control, AP 120 mg/kg oral
Procedure: Control and ABX rats were orally administered a single dose of AP at 120 mg/kg. Control, ABX and germ-free C57BL/6J mice were orally administered a single dose of AP at 100 mg/kg. After 90 min of AP administration, all animals were euthanized, and blood and tissue samples were collected for subsequent analysis.
An ACQUITY^TM UPLC-MS/MS system equipped with an ACQUITY^TM UPLC BEH C18 Column (50 × 2.1 mm I.D., 1.7 μm, Waters, Milford, MA, USA) was utilized for the quantification of AP and APM as previously described.[47] Briefly, the detection samples (50 μL) were mixed with 50 μL of IS (50 ng/mL). AP and APM were extracted by 400 μL cold methanol. Supernatants were dried under nitrogen stream. Then, the residue was dissolved with 50% methanol in water, centrifuged for 30 min at 13,000 rpm, and 10 µL of the supernatant was subjected to UPLC-MS/MS analysis. The mobile phases consisted of eluent A (water) and eluent B (methanol) with a gradient elution as follows: 0–0.8 min, 10% B; 0.8–1.2 min, 10–90% B; 1.2–5.0 min, 90% B; 5.0–5.5 min, 90–10% B; 5.5–7.0 min, 10% B. The flow rate was 0.3 mL/min and the injection volume of all samples was 10 μL. The quantification of AP, APM and IS was performed by UPLC-MS/MS using an MRM method with the transitions of m/z 349.1→m/z 287.2 for AP, m/z 413.2→m/z 287.2 for APM, m/z 269→m/z 133 for IS.
AP was administered intravenously and orally to detect the production of the C-sulfonate metabolite APM. In tissue distribution experiment, rats were given AP intravenously (24 mg/kg) or orally (120 mg/kg), while mice received AP intravenously (20 mg/kg) or orally (100 mg/kg). After a 90-minute interval, the animals were sacrificed, and their liver, kidneys, small intestine, and colon were collected for analysis. In pharmacokinetic studies, rats were administered 24 mg/kg of AP intravenously or 120 mg/kg of AP by oral gavage. Blood samples were collected at predetermined time intervals (0, 5, 10, 20, 30, 40, 60, 90, 120, 180, 240, 360, and 480 min), as described, to detect the content of AP and APM by UPLC-MS/MS.

intestinal flora of mice = test: Co-culturing AP with cecum samples from mice; format: in vitro ADME; settings: AP 10 μg/mL, anaerobic, 37°C, 6 h
Procedure: The cecum contents from mice were collected and mixed with sterilized anaerobic medium in a ratio of 1.0 g to 10 mL, with gentle agitation. After filtered, the mixed medium containing the intestinal flora was placed in an anaerobic environment and preincubated at 37°C for 30 min before use. Mixed medium with or without APS reductase inhibitor bromocriptine mesylate (20 μg/mL) was incubated with AP (10 μg/mL), while autoclaved mixed medium without APS reductase inhibitor served as the control. Incubation was performed in a shaking incubator at 37°C for 6 h, with strict maintenance of anaerobic condition throughout the process.[44] Similarly, D. piger (0.2 mL, 1 × 10^8 CFU/mL) with or without inhibitor, was incubated with AP for 0, 3, 6, and 12 h, with autoclaved D. piger without inhibitor serving as the control. The reaction was terminated by adding cold methanol contained IS. And then samples were analyzed by UPLC-MS/MS to detect the concentrations of AP and APM. Concentrations of APS reductase and HSO3^− were also determined at the end of incubation.
For the determination of APS reductase concentration, the supernatant from mouse cecum contents and the D. piger strain were assessed using microorganism APS reductase elisa assay kit (Shanghai Senxingyan Biotechnology Co., Ltd., China), following the instructions provided with the kit. For the determination of HSO3^− concentration, cecum contents from mice or rats were weighed and homogenized in five volumes of normal saline (based on tissue weight). The homogenate was then subjected to centrifugation at 13,000 rpm and 4°C for 15 min. The supernatant (or perfusate) was collected and mixed with 0.2% formaldehyde, 0.05% basic fuchsin, and 0.01% EDTA-Na2 in a ratio of 1:1:1:9 under acidic conditions. To establish a standard curve, different concentrations of NaHSO3 were used. Subsequently, the absorbance of the resulting solutions was measured at a wavelength of 560 nm after 40 min.

gut microbiota = test: Shotgun metagenomic sequencing of cecum samples after AP treatment; format: in vivo; settings: mice cecum, AP 400 mg/kg, oral, 14 d
Procedure: Shotgun metagenomic sequencing was performed using cecum samples from mice after AP treatment (400 mg/kg, oral, 14 d). DNA was extracted by a PF Mag-Bind DNA Kit (Omega Bio-tek, USA) and qualified by 1% Agarose gel electrophoresis. Extracted DNA was fragmented by Covaris M220 (Gene Company Limited, China) and screened at approximately 400 bp fragments for paired-end library construction. NEXTFLEX® Rapid DNA-Seq (Bioo Scientific, USA) was used to build paired-end library construction. The Illumina NovaSeq 6000 (Illumina, USA) sequencing platform was used for metagenomic sequencing. Fastp was used to perform quality cropping on the adapter sequences of the 3’ and 5’ ends of reads, preserving high-quality paired-end reads and single-end reads. BWA (version 0.7.17) was used to construct the reads with the host DNA sequence and remove contaminated reads with high alignment similarity. MEGAHIT (version 1.1.2) was used to splice and assemble the optimized sequence. SOAP aligner (version soap2.21release) was used to compare the high-quality reads of each sample with the non-redundant gene set (95% identity) and calculate the abundance information of genes in the corresponding samples. DIAMOND (version 2.0.11) was used to annotate species taxonomy, and KEGG function. Data was deposited into the NCBI Sequence Read Archive (SRA) database.

For `C=C1CC[C@@H]2[C@](C)(CO)[C@H](O)CC[C@@]2(C)[C@@H]1C/C=C1/C(=O)OC[C@H]1O` [AP, Andrographolide], the “levels of AP in plasma and tissues” value [1] was “elevated levels”, the “conversion of AP into APM by the intestinal flora” value (intestinal flora of mice) was “notable conversion” and the “expression of APS reductase / growth of APS reductase-producing gut microbiota” value (gut microbiota) was “did not induce significant alterations”. For the same molecule, the “expression of Enterococcus, Lactobacillus, and Escherichia bacteria” value (gut microbiota) was “did not suppress”.
